# Results taken from patent publication US5462958A, “Benzene derivatives and method of treating arteriosclerosis with benzene derivatives” (Eisai Co., Ltd., priority 1992, dated 1995).
# Columns and labels:
# Assay type in all cases: biochemical
# [1] = molecular target: T1, ACAT (Rattus norvegicus, UniProt Q7TQM4); assay: ACAT-inhibitory activity in vitro, microsome of the small intestine of a rat (acylation of cholesterol with radiolabeled oleoyl-CoA)
# T1 construct: the microsome of the small intestine of a rat; from tissue; host or cells: microsomes of rat small intestine
# T1 sequence (Q7TQM4 1-524): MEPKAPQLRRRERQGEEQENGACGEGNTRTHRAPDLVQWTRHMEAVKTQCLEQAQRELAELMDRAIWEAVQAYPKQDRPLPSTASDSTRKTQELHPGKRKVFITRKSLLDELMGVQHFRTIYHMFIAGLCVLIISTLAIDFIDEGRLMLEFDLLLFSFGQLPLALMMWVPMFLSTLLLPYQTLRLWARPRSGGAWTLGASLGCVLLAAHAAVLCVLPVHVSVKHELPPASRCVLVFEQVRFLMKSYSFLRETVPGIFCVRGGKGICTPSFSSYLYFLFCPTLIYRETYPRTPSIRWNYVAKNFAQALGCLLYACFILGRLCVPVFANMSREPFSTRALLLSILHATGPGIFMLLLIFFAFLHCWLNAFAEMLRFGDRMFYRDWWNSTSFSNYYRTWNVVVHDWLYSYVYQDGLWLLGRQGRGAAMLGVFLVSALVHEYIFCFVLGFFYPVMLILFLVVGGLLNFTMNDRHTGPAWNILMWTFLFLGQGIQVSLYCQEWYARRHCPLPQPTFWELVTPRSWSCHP
# Procedure: (§1) Representative compounds according to the present invention were examined for ACAT-inhibitory activity according to the in-vitro test method described in Journal of Lipid Research, vol. 24, pp. 1049-1059 (1983) by F. J. Field and S. N. Mathur.
# (§2) The inhibitory activity of a test compound against the acylation, which was based on the inhibitory activity of the test compound against the enzyme which catalyzes the acylation of cholesterol with oleoyl-CoA, was evaluated by using one of the supernatant of homogenate of the arterial wall of a rabbit, the microsome of the small intestine of a rat and the supernatant of homogenate of the epithelial cell (CaCO2) resulting from human colon cancer as an enzyme source, determining the amount of a radioisotope-labeled cholesterol oleate made from a radiolabeled oleoyl-CoA and (free) cholesterol and comparing the result of the case when a test compound was added with the result of control (the case when no test compound was added).
# (§3) The data which are given in Table 1 are IC50 values, i.e., the concentrations of test compounds necessary for inhibiting 50% of the enzymatic activity of ACAT.
# [2] = molecular target: T2, ACAT (Oryctolagus cuniculus, UniProt A0A5F9CPP4); assay: ACAT-inhibitory activity in vitro, supernatant of homogenate of the arterial wall of a rabbit (acylation of cholesterol with radiolabeled oleoyl-CoA)
# T2 construct: supernatant of homogenate of the arterial wall of a rabbit; from tissue; host or cells: supernatant of homogenate of rabbit arterial wall
# T2 sequence (A0A5F9CPP4 1-555): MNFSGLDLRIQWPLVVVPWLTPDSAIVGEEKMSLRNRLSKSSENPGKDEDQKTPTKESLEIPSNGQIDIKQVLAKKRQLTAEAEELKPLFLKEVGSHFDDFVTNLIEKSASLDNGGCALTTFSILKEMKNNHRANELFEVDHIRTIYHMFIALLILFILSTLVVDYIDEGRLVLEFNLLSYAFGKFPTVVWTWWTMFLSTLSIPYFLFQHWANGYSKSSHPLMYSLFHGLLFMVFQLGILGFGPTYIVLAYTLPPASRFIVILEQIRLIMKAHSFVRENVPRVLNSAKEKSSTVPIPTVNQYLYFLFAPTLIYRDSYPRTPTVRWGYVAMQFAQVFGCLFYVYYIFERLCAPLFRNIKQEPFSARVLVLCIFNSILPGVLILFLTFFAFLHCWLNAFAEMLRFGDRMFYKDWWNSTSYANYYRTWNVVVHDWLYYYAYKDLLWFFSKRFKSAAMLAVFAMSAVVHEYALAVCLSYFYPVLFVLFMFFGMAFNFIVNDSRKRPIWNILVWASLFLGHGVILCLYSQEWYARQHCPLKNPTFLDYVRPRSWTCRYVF
# Procedure: as §1, §2, §3
# [3] = tested on: ACAT; assay: ACAT-inhibitory activity in vitro, supernatant of homogenate of the epithelial cell (CaCO2) resulting from human colon cancer (acylation of cholesterol with radiolabeled oleoyl-CoA)
# Procedure: as §1, §2, §3
SMILES,IC50 [1] [nM],IC50 [2] [nM],IC50 [3] [nM]
"CCCCNC(=O)Nc1c(CO)cccc1OCCCn1cnc(-c2ccccc2)c1CC [Example 9, N-Butyl-N'-[2-[3-(5-ethyl-4-phenyl-1H-imidazol-1-yl)propoxy]-6-hydroxymethylphenyl]urea]",84,700,320
"CCCCNC(=O)Nc1c(C)cccc1OCCCn1cnc(-c2ccc(O)cc2)c1CC [Example 2, N-Butyl-N'-[2-[3-[5-ethyl-4-(4-hydroxyphenyl)-1H-imidazol-1-yl]propoxy]-6-methylphenyl]urea]",–,6900,1000
"CCc1c(-c2ccccc2)ncn1CCCOc1cccc(C)c1NC(N)=O [Example 8, N-[2-[3-(5-Ethyl-4-phenyl-1H-imidazol-1-yl)propoxy]-6-methylphenyl]urea]",–,–,3500
"CCCCNC(=O)Nc1c(C)cc(O)cc1OCCCn1cnc(-c2ccccc2)c1CC [Example 1, N-Butyl-N'-[2-[3-(5-ethyl-4-phenyl-1H-imidazol-1-yl)propoxy]-4-hydroxy-6-methylphenyl]urea]",–,580,–
"CCCCNC(=O)Nc1c(OCCCn2cnc(-c3ccccc3)c2CC)ccc(O)c1C [Example 11, N-Butyl-N'-[2-[3-(5-ethyl-4-phenyl-1H-imidazol-1-yl)propoxy]-5-hydroxy-6-methylphenyl]urea]",68,260,100

# Further lines, results first:
IC50 [1] [nM],IC50 [2] [nM],IC50 [3] [nM],SMILES
150,850,170,"CCCCNC(=O)Nc1c(C)cccc1OCCCn1cnc(-c2ccccc2)c1C(C)O (centres unmarked) [Example 5, N-Butyl-N'-[2-[3-[5-(1-hydroxyethyl)-4-phenyl-1H-imidazol-1-yl]propoxy]-6-methylphenyl]urea]"
4200,1000,480,"CCc1c(-c2ccccc2)ncn1CCCOc1cccc(C)c1NC(=O)NCCC(C)O (centres unmarked) [Example 10, N-(3-Hydroxybutyl)-N'-[2-[3-(5-ethyl-4-phenyl-1H-imidazol-1-yl)propoxy]-6-methylphenyl]urea]"
–,3800,–,"CCc1c(-c2ccccc2)ncn1CCCOc1cccc(C)c1NC(=O)NCCCCO [Example 6, N-(4-Hydroxybutyl)-N'-[2-[3-(5-ethyl-4-phenyl-1H-imidazol-1-yl)propoxy]-6-methylphenyl]urea]"
